Read-outs that look alike come from different tables or passages of the source.
How the values were obtained:
[1] = system: bovine cardiac myofibrils; test: Myofibril assay (ATPase activity of skinned bovine cardiac myofibrils, PK/LDH-coupled); type: biochemical; conditions: inhibition of steady-state ATPase of bovine cardiac myofibrils; CaCl2 for 50% or 75% activation
In short: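 Steady-state ATPase of detergent-skinned bovine left-ventricular myofibrils (1 mg/mL), PK/LDH-coupled NADH read at 340 nm, in PIPES/MgCl2 buffer pH 6.8 with 50 μM ATP, 0.6 mM EGTA and CaCl2 set for 50% or 75% activation. Inhibition of activity measured.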

[2] = Monkey cassette dosing pharmacokinetics; type: in vivo; conditions: IV; for clearance / Vd: male, plasma; for Vd: read-out: Vss
CYP1A2 = target: T1, CYP1A2 (Homo sapiens, UniProt P05177); test: Time-dependent inhibition of CYP1A2 in human liver microsomes; type: in vitro ADME; conditions: for (% Activity NADPH T0)/(% Activity NADPH T30): fold change; for activity at 30 min, 25 µM / activity at 0 min, 25 µM / activity at 30 min, 50 µM / activity at 0 min, 50 µM: pooled human liver microsomes, human liver microsomes; for activity at 30 min, 25 µM / activity at 30 min, 50 µM: after 30 minutes incubation, read-out: % Activity NADPH T30; for activity at 0 min, 25 µM / activity at 0 min, 50 µM: time zero, read-out: % Activity NADPH T0
T1 construct: Pooled human microsomes and selective CYP probe substrates were used; from tissue; host or cells: pooled human liver microsomes
T1 sequence (P05177 1-516): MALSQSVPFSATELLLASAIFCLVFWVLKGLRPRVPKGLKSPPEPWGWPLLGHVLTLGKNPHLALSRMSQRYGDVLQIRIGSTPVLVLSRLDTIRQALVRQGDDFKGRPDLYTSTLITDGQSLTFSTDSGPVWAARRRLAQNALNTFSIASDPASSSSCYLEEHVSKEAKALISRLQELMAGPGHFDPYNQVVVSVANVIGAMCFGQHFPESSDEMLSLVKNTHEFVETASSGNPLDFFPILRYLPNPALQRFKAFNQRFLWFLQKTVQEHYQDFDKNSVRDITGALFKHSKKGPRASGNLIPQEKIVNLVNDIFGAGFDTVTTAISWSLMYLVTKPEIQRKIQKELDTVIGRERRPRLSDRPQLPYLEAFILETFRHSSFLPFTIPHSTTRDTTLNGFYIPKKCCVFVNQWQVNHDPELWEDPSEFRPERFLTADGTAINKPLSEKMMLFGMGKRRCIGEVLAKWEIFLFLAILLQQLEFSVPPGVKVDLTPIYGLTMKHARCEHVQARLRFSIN
Method: (§1) An assessment of the time-dependent Inhibitory Potential of the test compounds against Principal Human Cytochrome P450 Isozymes using Human Liver Microsomes was also carried out using standard methods (Grimm et al, Drug Metab. Dispos., July; 37(7):1355-70. doi: 10.1124/dmd.109.026716, 2009). Pooled human microsomes and selective CYP probe substrates were used for in vitro assessment of test compounds at 25 and 50 μM as time-dependent inhibitors of […] human hepatic cytochrome P450 isozymes (CYP1A2, 2B6, 2C9, 2C19, 2D6, and 3A4). LC-MS/MS was used to quantify metabolite formation. The inhibition of each P450 enzyme in human liver microsomes was measured as the percentage decrease in the activity of marker metabolite formation as measured by LC-MS/MS compared to non-inhibited controls (=100% activity) at time zero and after 30 minutes incubation. The occurrence of any time dependent inhibition was then expressed as the fold change in enzyme activity at time zero relative to the activity after 30 minutes incubation.

CYP2B6 = target: T2, CYP2B6 (Homo sapiens, UniProt P20813); test: Time-dependent inhibition of CYP2B6 in human liver microsomes; type: in vitro ADME; conditions: for (% Activity NADPH T0)/(% Activity NADPH T30): fold change; for activity at 30 min, 25 µM / activity at 0 min, 25 µM / activity at 30 min, 50 µM / activity at 0 min, 50 µM: pooled human liver microsomes, human liver microsomes; for activity at 30 min, 25 µM / activity at 30 min, 50 µM: after 30 minutes incubation, read-out: % Activity NADPH T30; for activity at 0 min, 25 µM / activity at 0 min, 50 µM: time zero, read-out: % Activity NADPH T0
T2 construct: Pooled human microsomes and selective CYP probe substrates were used; from tissue; host or cells: pooled human liver microsomes
T2 sequence (P20813 1-491): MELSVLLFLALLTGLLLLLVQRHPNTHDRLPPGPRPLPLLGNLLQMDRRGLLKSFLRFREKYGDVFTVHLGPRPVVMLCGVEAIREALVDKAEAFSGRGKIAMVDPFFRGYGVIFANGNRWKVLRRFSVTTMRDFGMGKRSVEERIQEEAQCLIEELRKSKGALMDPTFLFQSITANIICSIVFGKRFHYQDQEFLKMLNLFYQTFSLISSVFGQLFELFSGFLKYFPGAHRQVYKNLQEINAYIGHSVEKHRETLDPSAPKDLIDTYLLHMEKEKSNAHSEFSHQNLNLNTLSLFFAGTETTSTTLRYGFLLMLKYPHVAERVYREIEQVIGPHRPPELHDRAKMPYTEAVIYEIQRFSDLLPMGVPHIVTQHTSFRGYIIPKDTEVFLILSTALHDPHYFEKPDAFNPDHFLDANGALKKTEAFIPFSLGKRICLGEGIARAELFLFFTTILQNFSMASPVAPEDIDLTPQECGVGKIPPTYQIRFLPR
Method: as §1

CYP2D6 = target: T3, CYP2D6 (Homo sapiens, UniProt P10635); test: Time-dependent inhibition of CYP2D6 in human liver microsomes; type: in vitro ADME; conditions: for (% Activity NADPH T0)/(% Activity NADPH T30): fold change; for activity at 30 min, 25 µM / activity at 0 min, 25 µM / activity at 30 min, 50 µM / activity at 0 min, 50 µM: pooled human liver microsomes, human liver microsomes; for activity at 30 min, 25 µM / activity at 30 min, 50 µM: after 30 minutes incubation, read-out: % Activity NADPH T30; for activity at 0 min, 25 µM / activity at 0 min, 50 µM: time zero, read-out: % Activity NADPH T0
T3 construct: Pooled human microsomes and selective CYP probe substrates were used; from tissue; host or cells: pooled human liver microsomes
T3 sequence (P10635 whole entry): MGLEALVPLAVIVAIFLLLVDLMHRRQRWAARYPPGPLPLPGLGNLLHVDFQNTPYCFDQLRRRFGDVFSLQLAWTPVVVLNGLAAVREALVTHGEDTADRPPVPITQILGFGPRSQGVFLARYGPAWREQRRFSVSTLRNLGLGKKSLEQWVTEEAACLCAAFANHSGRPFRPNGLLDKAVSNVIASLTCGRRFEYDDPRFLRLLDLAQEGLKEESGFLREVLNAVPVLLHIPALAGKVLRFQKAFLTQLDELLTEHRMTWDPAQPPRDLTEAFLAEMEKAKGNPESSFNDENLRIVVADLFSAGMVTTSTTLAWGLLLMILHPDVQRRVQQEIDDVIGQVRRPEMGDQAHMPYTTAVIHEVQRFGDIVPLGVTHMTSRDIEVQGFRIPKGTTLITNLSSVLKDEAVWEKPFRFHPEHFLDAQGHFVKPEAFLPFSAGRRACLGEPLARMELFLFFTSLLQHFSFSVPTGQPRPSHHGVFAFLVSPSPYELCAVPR
Method: as §1

CYP3A4 = target: T4, CYP3A4 (Homo sapiens, UniProt P08684); test: Time-dependent inhibition of CYP3A4 in human liver microsomes (testosterone and midazolam probes); type: in vitro ADME; conditions: for (% Activity NADPH T0)/(% Activity NADPH T30): fold change; for activity at 30 min, 25 µM / activity at 30 min, 50 µM: human, after 30 minutes incubation, read-out: % Activity NADPH T30; for activity at 30 min, 25 µM / activity at 30 min, 50 µM / activity at 0 min, 25 µM / activity at 0 min, 50 µM: pooled human liver microsomes; for activity at 0 min, 25 µM / activity at 0 min, 50 µM: human liver microsomes, time zero, read-out: % Activity NADPH T0
T4 construct: Pooled human microsomes and selective CYP probe substrates were used; from tissue; host or cells: pooled human liver microsomes
T4 sequence (P08684 whole entry): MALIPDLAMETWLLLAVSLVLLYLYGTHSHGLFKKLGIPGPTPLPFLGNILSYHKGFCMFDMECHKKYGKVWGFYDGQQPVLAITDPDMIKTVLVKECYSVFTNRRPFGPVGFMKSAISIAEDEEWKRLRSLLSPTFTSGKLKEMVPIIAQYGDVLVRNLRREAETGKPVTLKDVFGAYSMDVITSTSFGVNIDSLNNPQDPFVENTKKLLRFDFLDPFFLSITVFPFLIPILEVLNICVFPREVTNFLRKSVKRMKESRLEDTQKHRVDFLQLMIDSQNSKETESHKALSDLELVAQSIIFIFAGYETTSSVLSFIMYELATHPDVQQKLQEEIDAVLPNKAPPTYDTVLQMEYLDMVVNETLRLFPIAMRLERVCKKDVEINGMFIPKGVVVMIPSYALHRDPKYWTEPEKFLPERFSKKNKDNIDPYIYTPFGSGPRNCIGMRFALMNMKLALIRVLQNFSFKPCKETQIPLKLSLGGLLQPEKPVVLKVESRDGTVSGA
Method: as §1

[3] = CYP3A4-M (midazolam probe substrate), 25 μM
[4] = CYP3A4-M (midazolam probe substrate), 50 μM
[5] = CYP3A4-T (testosterone probe substrate), 25 μM
[6] = CYP3A4-T (testosterone probe substrate), 50 μM

| Structure (SMILES) | CDMF IC15 [1] [nM] | t l/2 [2] [h] | clearance [2] [mL/min/kg] | Vd [2] [L/kg] | (% Activity NADPH T0)/(% Activity NADPH T30) (CYP1A2; CYP1A2, 25 μM) | (% Activity NADPH T0)/(% Activity NADPH T30) (CYP1A2; CYP1A2, 50 μM) | activity at 30 min, 25 µM (CYP1A2; CYP1A2, 25 μM) [%] | activity at 0 min, 25 µM (CYP1A2; CYP1A2, 25 μM) [%] | activity at 30 min, 50 µM (CYP1A2; CYP1A2, 50 μM) [%] | activity at 0 min, 50 µM (CYP1A2; CYP1A2, 50 μM) [%] | (% Activity NADPH T0)/(% Activity NADPH T30) (CYP2B6; CYP2B6, 25 μM) | (% Activity NADPH T0)/(% Activity NADPH T30) (CYP2B6; CYP2B6, 50 μM) | activity at 30 min, 25 µM (CYP2B6; CYP2B6, 25 μM) [%] | activity at 0 min, 25 µM (CYP2B6; CYP2B6, 25 μM) [%] | activity at 30 min, 50 µM (CYP2B6; CYP2B6, 50 μM) [%] | activity at 0 min, 50 µM (CYP2B6; CYP2B6, 50 μM) [%] | (% Activity NADPH T0)/(% Activity NADPH T30) (CYP2D6; CYP2D6, 25 μM) | (% Activity NADPH T0)/(% Activity NADPH T30) (CYP2D6; CYP2D6, 50 μM) | activity at 30 min, 25 µM (CYP2D6; CYP2D6, 25 μM) [%] | activity at 0 min, 25 µM (CYP2D6; CYP2D6, 25 μM) [%] | also measured |
| --- | --- | --- | --- | --- | --- | --- | --- | --- | --- | --- | --- | --- | --- | --- | --- | --- | --- | --- | --- | --- | --- |
| C[C@H]1CC[C@H](N2CC(=O)N(Cc3ccc(F)c(F)c3)C3(CN(C(N)=O)C3)C2=O)CC1 [Compound 5, 5-(3,4-difluorobenzyl)-8-((1r,4r)-4-methylcyclohexyl)-6,9-dioxo-2,5,8-triazaspiro[3.5]nonane-2-carboxamide] | 1300 | 8.2 | 19 | 10.2 | 1.0 | 1.1 | 87 | 89 | 88 | 99 | 1.0 | 1.1 | 78 | 79 | 76 | 83 | 1.1 | 1.1 | 89 | 98 | activity at 30 min, 50 µM (CYP2D6; CYP2D6, 50 μM): 84%; activity at 0 min, 50 µM (CYP2D6; CYP2D6, 50 μM): 94%; (% Activity NADPH T0)/(% Activity NADPH T30) (CYP3A4; [3]): 1.1; (% Activity NADPH T0)/(% Activity NADPH T30) (CYP3A4; [4]): 1.9; (% Activity NADPH T0)/(% Activity NADPH T30) (CYP3A4; [5]): 1.1; (% Activity NADPH T0)/(% Activity NADPH T30) (CYP3A4; [6]): 1.4; activity at 30 min, 25 µM (CYP3A4; [3]): 69%; activity at 30 min, 50 µM (CYP3A4; [4]): 35%; activity at 30 min, 25 µM (CYP3A4; [5]): 87%; activity at 30 min, 50 µM (CYP3A4; [6]): 68%; activity at 0 min, 25 µM (CYP3A4; [3]): 75%; activity at 0 min, 50 µM (CYP3A4; [4]): 67%; activity at 0 min, 25 µM (CYP3A4; [5]): 100%; activity at 0 min, 50 µM (CYP3A4; [6]): 98% |
| Cc1cc(CN2C(=O)CN([C@H]3CC[C@H](C)CC3)C(=O)C23CN(C(N)=O)C3)ccc1F [Compound 6, 5-(4-fluoro-3-methylbenzyl)-8-((1r,4r)-4-methylcyclohexyl)-6,9-dioxo-2,5,8-triazaspiro[3.5]nonane-2-carboxamide] | 1400 | 8.07 | 12.3 | 6.29 | 1.1 | 1.0 | 85 | 97 | 99 | 95 | 1.1 | 1.1 | 83 | 95 | 77 | 87 | 1.3 | 1.2 | 87 | 112 | (% Activity NADPH T0)/(% Activity NADPH T30) (CYP2D6; CYP2D6, 50 μM, listed as compound 6): no change in activity; activity at 30 min, 50 µM (CYP2D6; CYP2D6, 50 μM): 92%; activity at 0 min, 50 µM (CYP2D6; CYP2D6, 50 μM): 107%; (% Activity NADPH T0)/(% Activity NADPH T30) (CYP3A4; [3]): 1.0; (% Activity NADPH T0)/(% Activity NADPH T30) (CYP3A4; [4]): 0.8; (% Activity NADPH T0)/(% Activity NADPH T30) (CYP3A4; [5]): 1.3; (% Activity NADPH T0)/(% Activity NADPH T30) (CYP3A4; [6]): 1.4; activity at 30 min, 25 µM (CYP3A4; [3]): 89%; activity at 30 min, 50 µM (CYP3A4; [4]): 86%; activity at 30 min, 25 µM (CYP3A4; [5]): 76%; activity at 30 min, 50 µM (CYP3A4; [6]): 63%; activity at 0 min, 25 µM (CYP3A4; [3]): 89%; activity at 0 min, 50 µM (CYP3A4; [4]): 72%; activity at 0 min, 25 µM (CYP3A4; [5]): 95%; activity at 0 min, 50 µM (CYP3A4; [6]): 89% |
